Experimental data taken from patent US9765039B2, “Biaryl derivatives as bromodomain inhibitors” (Zenith Epigenetics Ltd., priority 2012, dated 2017).
Counter-ions that a name gives are not always drawn.

Experiments:
hIL-6 mRNA = assay: Inhibition of hIL-6 mRNA transcription in LPS-stimulated U937 macrophages; type: cell-based, human; set-up: key: Active: Compounds with an IC50 value less than 30 μM are deemed to be active; conditions: U937 differentiated into macrophages, 1 h pretreatment, lipopolysaccharide 3 h
Protocol: In this example, hIL-6 mRNA in tissue culture cells was quantitated to measure the transcriptional inhibition of hIL-6 when treated with a compound of the present disclosure.
A human leukemic monocyte lymphoma cell line (U937) was plated (3.2×10^4 cells per well) in a 96-well plate in 100 μL RPMI-1640 containing 10% FBS and penicillin/streptomycin, and differentiated into macrophages for 3 days in 60 ng/mL PMA ([…]) at 37° C. in 5% CO2 prior to the addition of the compound of interest. The cells were pretreated for 1 h with the test compound prior to stimulation with […] lipopolysaccharide from Escherichia coli. The cells were incubated at 37° C. for 3 h before the cells were harvested. At time of harvest, the spent media was removed from the cells and the cells were rinsed in 200 μL PBS. Cell lysis solution (70 μL) was added the cells in each well and incubated for 5-10 min at room temperature, to allow for complete cell lysis and detachment. mRNA was then prepared using the “mRNA Catcher PLUS plate” (Invitrogen), according to the protocol supplied. After the last wash, as much wash buffer as possible was aspirated without allowing the wells to dry. Elution buffer (E3, 70 μL) was then added to each well. mRNA was then eluted by incubating the mRNA Catcher PLUS plate with Elution Buffer for 5 min at 68° C. and then immediately placing the plate on ice.
The eluted mRNA isolated was then used in a one-step quantitative real-time PCR reaction, using components of the Ultra Sense Kit together with Applied Biosystems primer-probe mixes. Real-time PCR data was analyzed, normalizing the Ct values for hIL-6 to an internal control, prior to determining the fold induction of each unknown sample, relative to the control.

Brd4 bromodomain 1 = target: T1, Brd4 bromodomain 1 (Homo sapiens, UniProt O60885); assay: Inhibition of tetra-acetylated histone H4 binding to BET bromodomains (TR-FRET); set-up: key: Active: Compounds with an IC50 value less than 30 μM were deemed to be active.; Not Active: Compounds with an IC50 value less than 30 μM were deemed to be active; conditions: first bromodomain of Brd4, tetra-acetylated histone H4 peptide
T1 construct: made in house; host or cells: E. coli BL21(DE3)
Protocol: Proteins were cloned and overexpressed with a N-terminal 6×His tag, then purified by nickel affinity followed by size exclusion chromatography. Briefly, E. coli BL21(DE3) cells were transformed with a recombinant expression vector encoding N-terminally Nickel affinity tagged bromodomains from Brd2, Brd3, Brd4. Cell cultures were incubated at 37° C. with shaking to the appropriate density and induced overnight with IPTG. The supernatant of lysed cells was loaded onto Ni-IDA column for purification. Eluted protein was pooled, concentrated and further purified by size exclusion chromatography. Fractions representing monomeric protein were pooled, concentrated, aliquoted, and frozen at −80° C. for use in subsequent experiments.
Binding of tetra-acetylated histone H4 and BET bromodomains was confirmed by a Time Resolved Fluorescence Resonance Energy Transfer (TR-FRET) method. N-terminally His-tagged bromodomains (200 nM) and biotinylated tetra-acetylated histone H4 peptide (25-50 nM, Millipore) were incubated in the presence of Europium Cryptate-labeled streptavidin (Cisbio Cat. #610SAKLB) and XL665-labeled monoclonal anti-His antibody (Cisbio Cat. #61HISXLB) in a white 96 well microtiter plate (Greiner). For inhibition assays, serially diluted test compound was added to these reactions in a 0.2% final concentration of DMSO. Final buffer concentrations were 30 mM HEPES pH 7.4, 30 mM NaCl, 0.3 mM CHAPS, 20 mM phosphate pH 7.0, 320 mM KF, 0.08% BSA). After 2 hours incubation at room temperature, the fluorescence by FRET was measured at 665 and 620 nm by a SynergyH4 plate reader (Biotek). Illustrative results with the first bromodomain of Brd4 are shown below (Table 1). The binding inhibitory activity was shown by a decrease in 665 nm fluorescence relative to 620 nm. IC50 values were determined from a dose response curve.

c-myc = assay: Inhibition of c-myc expression in cancer cell lines (mRNA, real-time PCR); type: cell-based; set-up: key: Active: Compounds with an IC50 value less than 30 μM were deemed to be active; conditions: Human AML MV4-11 cells, 3 hours
Protocol: MV4-11 cells (2.5×10^4 cells) were plated in 96 well U-bottom plates with test compound or DMSO (0.1%), and incubated for 3 hours at 37° C. Cells were then harvested by centrifugation, lysed, and mRNA was isolated using the mRNA catcher plus kit (Invitrogen). Reverse transcription of the mRNA and duplex amplification of the c-myc and cyclophilin cDNAs was performed using the RNA Ultrasense kit (Invitrogen) and a ViiA7 real-time PCR machine (Applied Biosystems). IC50 values were determined from a dose response curve.

Human AML MV-4-11 cells = assay: Inhibition of cell proliferation in cancer cell lines (CellTiter Aqueous One); type: cell-based; set-up: key: Active: Compounds with an IC50 value less than 30 μM were deemed to be active.; Not Active: Compounds with an IC50 value less than 30 μM were deemed to be active; conditions: 72 hours
Protocol: MV4-11 cells: 96-well plates were seeded with 5×10^4 cells per well of exponentially growing human AML MV-4-11 (CRL-9591) cells and immediately treated with two-fold dilutions of test compounds, ranging from 30 μM to 0.2 μM. Triplicate wells were used for each concentration, as well as a media only and three DMSO control wells. The cells and compounds were incubated at 37° C., 5% CO2 for 72 hours before adding 20 μL of the CellTiter Aqueous One Solution (Promega) to each well and incubating at 37° C., 5% CO2 for an additional 3-4 hours. The absorbance was taken at 490 nm in a spectrophotometer and the percentage of proliferation relative to DMSO-treated cells was calculated after correction from the blank well. IC50 were calculated using the GraphPad Prism software.

| SMILES | melting point | IL-6 activity (IC50 < 30 μM) (hIL-6 mRNA) | FRET activity (IC50 < 30 μM) (Brd4 bromodomain 1) | c-myc activity (IC50 < 30 μM) (c-myc) | cell proliferation activity (IC50 < 30 μM) (Human AML MV-4-11 cells) |
| --- | --- | --- | --- | --- | --- |
| COc1cc(OC)c2c(=O)[nH]c(-c3ccc(OCCO)c(-c4ccc(C(C)=O)cc4)n3)nc2c1 (as salt: hydrochloride) [Example 28, 2-(6-(4-Acetylphenyl)-5-(2-hydroxyethoxy)pyridin-2-yl)-5,7-dimethoxyquinazolin-4(3H)-one] | 232 to 234 °C |  |  |  |  |
| CCS(=O)(=O)c1ccc(-c2nc(-c3nc4cc(OC)cc(OC)c4c(=O)[nH]3)ccc2OCCN2CCCC2)cc1 (as salt: hydrochloride) [Example 42, 2-(6-(4-(Ethylsulfonyl)phenyl)-5-(2-(pyrrolidin-1-yl)ethoxy)pyridin-2-yl)-5,7-dimethoxyquinazolin-4(3H)-one] | 235 to 236 °C |  |  |  |  |
| CCS(=O)(=O)c1ccc(-c2nc(-c3nc4cc(OC)cc(OC)c4c(=O)[nH]3)ccc2OCCN2CCOCC2)cc1 (as salt: hydrochloride) [Example 43, 2-(6-(4-(Ethylsulfonyl)phenyl)-5-(2-morpholinoethoxy)pyridin-2-yl)-5,7-dimethoxyquinazolin-4(3H)-one] | 245 °C (dec.) |  |  |  |  |
| CN1CC[C@H](Oc2cc(F)cc3nc(-c4cccc(-c5ccc(S(C)(=O)=O)cc5)n4)[nH]c(=O)c23)C1 [Example 7, (S)-7-Fluoro-5-((1-methylpyrrolidin-3-yl)oxy)-2-(6-(4-(methylsulfonyl)phenyl)pyridin-2-yl)quinazolin-4(3H)-one] |  | Not Active | Not Active |  |  |
| COc1cc(OC)c2c(=O)[nH]c(-c3cccc(-c4ccc(C(=O)N(C)C)cc4)n3)cc2c1 [Example 8, 4-(6-(6,8-Dimethoxy-1-oxo-1,2-dihydroisoquinolin-3-yl)pyridin-2-yl)-N,N-dimethylbenzamide] |  | Active | Not Active | Not Active | Active |
| COc1cc(OC)c2c(=O)[nH]c(-c3cccc(-c4ccc(S(C)(=O)=O)cc4)n3)cc2c1 [Example 9, 6,8-Dimethoxy-3-(6-(4-(methylsulfonyl)phenyl)pyridin-2-yl)isoquinolin-1(2H)-one] |  | Not Active | Not Active |  |  |
| COc1cc(OC)c2c(=O)[nH]c(-c3cccc(-c4ccc([S+](C)[O-])cc4)n3)cc2c1 (centres unmarked) [Example 10, 6,8-dimethoxy-3-(6-(4-(methylsulfinyl)phenyl)pyridin-2-yl)isoquinolin-1(2H)-one] |  | Active | Not Active |  |  |
| COc1cc(OC)c2c(=O)[nH]c(-c3ccc(OCCN(C)C)c(-c4ccc([S+](C)[O-])cc4)c3)nc2c1 (centres unmarked) [Example 11, 2-(6-(2-(Dimethylamino)ethoxy)-4′-(methylsulfinyl)biphenyl-3-yl)-5,7-dimethoxyquinazolin-4(3H)-one] |  | Active | Active | Active | Active |
| COc1cc(OC)c2c(=O)[nH]c(-c3ccc(OC4CNC4)c(-c4ccc([S+](C)[O-])cc4)c3)nc2c1 (centres unmarked) [Example 12, 2-(6-(Azetidin-3-yloxy)-4′-(methylsulfinyl)biphenyl-3-yl)-5,7-dimethoxyquinazolin-4(3H)-one] |  | Not Active |  | Not Active | Not Active |
| COc1cc(OC)c2c(=O)[nH]c(-c3ccc(OC4CN(C)C4)c(-c4ccc([S+](C)[O-])cc4)c3)nc2c1 (centres unmarked) [Example 13, 5,7-Dimethoxy-2-(6-(1-methylazetidin-3-yloxy)-4′-(methylsulfinyl)biphenyl-3-yl)quinazolin-4(3H)-one] |  | Active | Active | Active | Active |
| COc1cc(F)cc2nc(-c3ccc(OC4CNC4)c(-c4ccc([S+](C)[O-])cc4)c3)[nH]c(=O)c12 (centres unmarked) [Example 14, 2-(6-(Azetidin-3-yloxy)-4′-(methylsulfinyl)-[1,1′-biphenyl]-3-yl)-7-fluoro-5-methoxyquinazolin-4(3H)-one] |  | Not Active | Active | Not Active | Not Active |
| COc1cc(OC)c2c(=O)[nH]c(-c3ccc(OCCO)c(-c4ccc([S+](C)[O-])cc4)c3)nc2c1 (centres unmarked) [Example 16, 2-(6-(2-Hydroxyethoxy)-4′-(methylsulfinyl)biphenyl-3-yl)-5,7-dimethoxyquinazolin-4(3H)-one] |  | Active | Active | Not Active | Not Active |
| COc1cc(OC)c2c(=O)[nH]c(-c3ccc(OCCO)c(-c4ccc(C(C)=O)cc4)n3)nc2c1 [Example 28, 2-(6-(4-Acetylphenyl)-5-(2-hydroxyethoxy)pyridin-2-yl)-5,7-dimethoxyquinazolin-4(3H)-one] |  | Active | Active |  |  |
| COc1cc(OC)c2c(=O)[nH]c(-c3ccc(OCCO)c(-c4cccc(S(C)(=O)=O)c4)n3)nc2c1 [Example 36, 2-(5-(2-Hydroxyethoxy)-6-(3-(methylsulfonyl)phenyl)pyridin-2-yl)-5,7-dimethoxyquinazolin-4(3H)-one methanesulfonate] |  | Not Active | Not Active | Not Active | Not Active |
| CC(C)NCCOc1ccc(-c2nc3ccccc3c(=O)[nH]2)nc1-c1ccc([S+](C)[O-])cc1 (centres unmarked) [Example 65, 2-(5-(2-(Isopropylamino)ethoxy)-6-(4-(methylsulfinyl)phenyl)pyridin-2-yl)quinazolin-4(3H)-one] |  | Active | Active |  |  |
| COc1ccc2c(=O)[nH]c(-c3ccc(OCCNC(C)C)c(-c4ccc([S+](C)[O-])cc4)n3)nc2c1 (centres unmarked) [Example 66, 2-(5-(2-(Isopropylamino)ethoxy)-6-(4-(methylsulfinyl)phenyl)pyridin-2-yl)-7-methoxyquinazolin-4(3H)-one] |  |  | Active |  |  |
